Source: patent US5496452A, “Substrate regenerating biosensor” (priority 1990, dated 1996)

Legend:
[1] = target: T1, horseradish peroxidase (HRP) (Armoracia rusticana, UniProt P00433); test: Ferrocenes as mediators for HRP reduction: ring current at rotating ring disc electrode; format: biochemical; conditions: ferrocene derivative 0.5 mM, HRP 2.5 μM, disc potential -1.2V; for Relative Current: relative to hydroxymethyl ferrocene = 100%
T1 construct: purchased Biozyme
T1 sequence (P00433 31-353): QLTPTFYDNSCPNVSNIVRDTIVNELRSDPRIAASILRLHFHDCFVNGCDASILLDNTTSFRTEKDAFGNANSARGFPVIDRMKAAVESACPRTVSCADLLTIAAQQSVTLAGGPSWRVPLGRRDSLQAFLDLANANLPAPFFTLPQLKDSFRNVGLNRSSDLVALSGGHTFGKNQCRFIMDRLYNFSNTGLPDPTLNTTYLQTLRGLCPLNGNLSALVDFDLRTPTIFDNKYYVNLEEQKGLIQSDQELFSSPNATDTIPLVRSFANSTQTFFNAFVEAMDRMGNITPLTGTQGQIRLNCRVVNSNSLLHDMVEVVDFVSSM
Excerpt: The electrocatalytic activity of HRP as shown in FIGS. 1 and 2 was typically assessed by immersing the rotating ring disc electrode in a buffered solution containing peroxidase and hydroxymethyl ferrocene mediator. The electrode was rotated at a constant speed to control the transport of material to the disc electrode and subsequently out to the ring. A cathodic potential sweep was applied to the glassy carbon disc at 0.1V/S. The platinum ring was held at constant potential of 0V and the current at the ring as a function of the disc potential was measured. Before determination of the peroxidase generated ring current, following electrode immersion, the ring current (background current) was allowed to stabilize (about 5 min). […] The catalytic current was defined as the net reductive current occurring at a disc potential of 0 volts.
The actual profile of the reduction current seen at the ring electrode is a function of the concentrations of the enzyme and substrates, as well as the rotation rate of the electrode, the sweep rate at the disc and the potential of the ring. The magnitude of this current also depends on the fraction of enzymatically generated ferricinium (oxidized ferrocene) which actually reaches the ring.
(§1) Several ferrocenes shown in Table 1 were tested for their ability to act as mediators for HRP reduction.

[2] = Redox potential (Ep1/2) of ferrocene derivatives; format: physicochemical; conditions: ferrocene derivative 0.5 mM; potentials quoted vs SCE
Excerpt: A four electrode analogue potentiostat (not shown) which is optionally computer controlled is used to control the potentials at the working electrodes (2) and (3). The disc electrode (2) is connected to a triangular wave generator (not shown) for potential sweeps and the ring electrode (3) is connected to a constant DC voltage source. The electrode rotation is controlled by a Ursar Scientific rotator. All potentials are quoted with respect to a saturated calomel electrode (SCE) with a 1 cm^2 platinum gauze serving as the counter electrode.
as §1

SMILES | Current (ring current) [1] [mA] | Relative Current [1] [%] | Ep1/2 (redox potential) [2] [mv]
O=C([O-])[c-]1cccc1.O=C([O-])[c-]1cccc1.[Fe+2] [1,1' Dicarboxylate Ferrocene] | 0.10 | 3 | 420
OC[c-]1cccc1.[Fe+2].c1cc[cH-]c1 [Hydroxymethyl Ferrocene] | 3.8 | 100 | 210
O=C([O-])[c-]1cccc1.[Fe+2].c1cc[cH-]c1 [Monocarboxylate Ferrocene] | 0.64 | 17 | 295
CN(C)Cc1ccc[cH-]1.[Fe+2].c1cc[cH-]c1 [Dimethylaminomethyl Ferrocene] | 0.22 | 6 | 490
